Measurements from patent US8188059B2, “Compounds and methods for modulating expression of GCGR” (Isis Pharmaceuticals, Inc., priority 2006, dated 2012).
Strand notation (5' to 3'): a small letter for the sugar, then the base; units joined by * are phosphorothioate-linked, units joined directly phosphodiester-linked; [ ] holds rarer units or linkages, { } end groups; capitals alone tell only the bases. [PALM-N] = nucleoside bearing a 2'-(butylacetamido)-palmitamide (C16 palmitic acid) substituent (N: the base); e = 2'-O-(2-methoxyethyl) (MOE); l = locked nucleic acid (LNA); k = constrained ethyl (cEt); [5mC] = 5-methylcytosine; d = 2'-deoxy (DNA)

Assays:
ApoB mRNA [1] = test: ApoB mRNA in liver of Balb/c mice, BNA short antisense compounds, i.p. twice per week for three weeks (Example 26, Table 89); type: in vivo, mouse; conditions: relative to saline
Procedure: The short antisense compounds shown in Table 88 were tested for their effects in vivo. […] A 5-10-5 MOE gapmer was used for a control treatment. Mice were sacrificed approximately 48 hours following the final dose. Liver tissue was collected for RNA isolation, and blood was collected for serum chemistry analyses. ApoB mRNA levels were measured by real-time PCR as described herein. ApoB mRNA levels were normalized to RNA levels as determined by RIBOGREEN, and are presented in Table 89 as percent inhibition relative to ApoB mRNA levels in saline-treated control animals.

ApoB mRNA [2] = test: ApoB mRNA in liver of Balb/c mice, single i.p. dose 8, 4, 2 or 1 μmol/kg, with ED50 (Example 28, Table 92); type: in vivo, mouse; conditions: Balb/c mice, relative to saline
Procedure: (§1) The short antisense compounds tested were ISIS 387462 and ISIS 398296. Each dose group consisted of four animals. A 5-10-5 MOE gapmer was used for a control treatment. Mice were sacrificed approximately 48 hours following the final dose. Liver tissue was collected for RNA isolation, and blood was collected for serum chemistry analyses. ApoB mRNA levels were measured by real-time PCR as described herein. ApoB mRNA levels were normalized to RNA levels as determined by RIBOGREEN, and are presented in Table 92 as percent inhibition relative to ApoB mRNA levels in saline-treated control animals.
At the 8 umol/kg dose, ApoB inhibition by the short antisense compounds was greater than observed with a 5-10-5 MOE gapmer at an equivalent dose. […] Triglycerides were reduced at the highest dose.

PTP1B mRNA [3] = test: Antisense inhibition of human PTP1B in HepG2 cells at 25 nM (Example 24, Table 85); type: cell-based
Procedure: Short antisense compounds targeted to a PTP1B nucleic acid were tested for their effects on PTP1B mRNA in vitro. Cultured HepG2 cells at a density of 10000 cells per well in a 96-well plate were treated with 25 nM of antisense oligonucleotide. After the treatment period, RNA was isolated from the cells and PTP1B mRNA levels were measured by quantitative real-time PCR, as described herein. PTP1B mRNA levels were adjusted according to total RNA content as measured by RIBOGREEN®. Results are presented as percent inhibition (% Ihib) of PTP1B, relative to untreated control cells.

PTP1B mRNA [4] = test: Dose response for human PTP1B in HuVEC cells, Primer Probe Set 198 (Example 25, Table 86); type: cell-based
Procedure: (§2) Human vascular endothelial (HuVEC) cells were plated at a density of 5000 cells per well and treated as described herein with nM concentrations of short antisense compound as indicated in Table 86. After the treatment period, RNA was isolated from the cells and PTP1B mRNA levels were measured by quantitative real-time PCR, as described herein. PTP1B mRNA levels were adjusted according to total RNA content as measured by RIBOGREEN®. Two different human PTP1B primer probe sets were used to measure mRNA levels. Results with Primer Probe Set (PPS) 198 are shown in Table 86, and results with Primer Probe Set (PPS) 3000 are shown in Table 87. Results are presented as percent inhibition of PTP1B mRNA expression relative to untreated control cells.

PTP1B mRNA [5] = test: Antisense inhibition of human PTP1B in HuVEC cells at 3 nM (Example 23, Table 84); type: cell-based
Procedure: Short antisense compounds targeted to a PTP1B nucleic acid were tested for their effects on PTP1B mRNA in vitro. Cultured HuVEC cells at a density of 5000 cells per well in a 96-well plate were treated as described herein with 3 nM of short antisense compound. After the treatment period, RNA was isolated from the cells and PTP1B mRNA levels were measured by quantitative real-time PCR, as described herein. PTP1B mRNA levels were adjusted according to total RNA content as measured by RIBOGREEN®. Results are presented as percent inhibition of PTP1B (% Inhib), relative to untreated control cells.

PTP1B mRNA [6] = test: Dose response for human PTP1B in HuVEC cells, Primer Probe Set 3000 (Example 25, Table 87); type: cell-based
Procedure: as §2

dog SGLT2 mRNA = test: Dog SGLT2 mRNA levels in kidney, beagle dogs, subcutaneous (Example 17, Table 73); type: in vivo; conditions: for % change in SGLT2 expression relative to saline: subcutaneous twice weekly, day 46
Procedure: ISIS 388625 is a 2-8-2 MOE Gapmer with sequence […] (SEQ ID NO: 246) (e.g. see Table 71). The effect of ISIS 388625 on dog SGLT2 mRNA levels. Data are taken from two dosing groups in which a total of nine male beagle dogs were dosed with either one or ten mg/kg/week of ISIS or saline given by subcutaneous injection twice weekly. On day 46 of the study all dogs were sacrificed and evaluated for SGLT2 levels in kidney. Target levels were determined by quantitative RT, real-time PCR as described by other examples herein. PCR results were normalized to an internal ISIS control.

mouse SGLT2 mRNA [7] = test: Mouse SGLT2 mRNA levels in kidney, MOE versus Methyleneoxy BNA gapmers, Balb/c mice (Example 15, Table 69); type: in vivo
Procedure: The effect of ISIS 379692 1-10-1 MOE gapmer and ISIS 388625 2-8-2 MOE gapmer are compared with the effect of ISIS 392170 1-10-1 Methyleneoxy BNA Gapmer and ISIS 392173 2-8-2 Methyleneoxy BNA Gapmer (see Table 69) on mouse SGLT2 mRNA levels in vivo. Data are taken from three experiments in which male 6-week old Balb/c mice were dosed twice per week for three weeks with 5, 25 and 125 nmol/kg of either the ISIS 379692 1-10-1 MOE gapmer or the ISIS 388625 2-8-2 MOE gapmer given by intraperitoneal injection. Mice were sacrificed 48 hours following last administration and evaluated for SGLT2 mRNA levels in kidney. Target levels were determined by RT, real-time PCR as described by other examples herein. PCR results were normalized to an internal ISIS control. The data are expressed as percent change (“+” indicates an increase, “−” indicates a decrease) relative to saline treated animals and are illustrated in Table 69.

[8] = Plasma glucose in ZDF rats, once a week for twelve weeks (Example 16, Table 71); type: in vivo, rat; conditions: compared to PBS and control treated animals
Procedure: (§3) ISIS 388625, 388626 and control oligo ISIS 388628 were analyzed for their effect on ZDF rat plasma glucose levels and HbA1c. The leptin receptor deficient Zucker diabetic fatty (ZDF) rat is a useful model for the investigation of type 2 diabetes. Diabetes develops spontaneously in these male rats at ages 8-10 weeks, and is associated with hyperphagia, polyuria, polydipsia, and impaired weight gain, symptoms which parallel the clinical symptoms of diabetes (Phillips M S, et al., 1996, Nat Genet. 13, 18-19). Six week old ZDF rats were injected intraperitoneally with short antisense compound at a dose of 400 nM/kg once a week for twelve weeks. Data are illustrated in Tables 71 and 72.

mouse SGLT2 mRNA [9] = test: Mouse SGLT2 mRNA levels in kidney, additional 1-10-1 and 2-8-2 MOE gapmers, Balb/c mice (Example 15, Table 68); type: in vivo
rat SGLT2 mRNA = test: Rat SGLT2 mRNA levels in kidney, ISIS 379692 and ISIS 388625, Sprague-Dawley rats (Example 15, Table 70); type: in vivo; conditions: i.p. twice per week for three weeks
Procedure: The effect of ISIS 379692 1-10-1 MOE gapmer and ISIS 388625 MOE 2-8-2 gapmer (see Table 70) on rat SGLT2 mRNA levels in vivo. […] Rats were sacrificed 48 hours following last administration and evaluated for SGLT2 levels in kidney. Target levels were determined by RT, real-time PCR as described by other examples herein. PCR results were normalized to an internal ISIS control.

[10] = Standard glucose tolerance test and urinary glucose excretion in dog (Example 17); type: in vivo
Excerpt: Even greater reduction can be achieved at slightly higher doses. […] Peak plasma glucose levels were decreased by over 50% on average and the subsequent drop in glucose was lessened compared to saline controls in a standard glucose tolerance test.

[11] = HbA1c status in ZDF rats (Example 16, Table 72); type: in vivo, rat; conditions: compared to PBS and control treated animals
Procedure: as §3

ApoB mRNA [12] = test: ApoB mRNA in liver of Balb/c mice, palmitic acid conjugates, single i.p. dose, with ED50 (Example 30, Table 95); type: in vivo, mouse; conditions: single i.p. injection
Procedure: as §1, with “0.4,” for “The short antisense compounds tested were ISIS 387462”, “0.16 umol/kg.” for “ISIS 398296.”, “95” for “92”
(§4) At the 2.5 umol/kg dose, ApoB inhibition by the short antisense compounds was greater than observed with a 5-10-5 MOE gapmer at an equivalent dose. […] Triglycerides were reduced at the 2.5 and […] doses of ISIS 387462 and ISIS 391872.

[13] = Triglycerides, total cholesterol, HDL-C, LDL-C and adverse effects (Example 30); type: in vivo, mouse
Procedure: as §1, with “0.4,” for “The short antisense compounds tested were ISIS 387462”, “0.16 umol/kg.” for “ISIS 398296.”, “95” for “92”
as §4

[14] = 0.1 umol/kg i.p. twice per week for three weeks

Substance: 398296 (antisense kG*kG*dT*dA*dC*dA*dT*dG*dG*dA*dA*dG*kT*kC) [compound 398296]
- % Inhib (ApoB mRNA in liver) (ApoB mRNA [1]; [14]): 17%
- % Inhib (ApoB mRNA in liver) (ApoB mRNA [1]; 0.32 umol/kg i.p. twice per week for three weeks): 35%
- % Inhib (ApoB mRNA in liver) (ApoB mRNA [1]; 1 umol/kg i.p. twice per week for three weeks): 80%
- % Inhib (ApoB mRNA in liver) (ApoB mRNA [1]; 3.2 umol/kg i.p. twice per week for three weeks): 98%
- % Inhib (ApoB mRNA in liver) (ApoB mRNA [2]; single i.p. dose 1 umol/kg): 19%
- % Inhib (ApoB mRNA in liver) (ApoB mRNA [2]; single i.p. dose 2 umol/kg): 54%
- % Inhib (ApoB mRNA in liver) (ApoB mRNA [2]; single i.p. dose 4 umol/kg): 81%
- % Inhib (ApoB mRNA in liver) (ApoB mRNA [2]; single i.p. dose 8 umol/kg): 97%

Substance: 399301 (antisense eG*eT*dG*dT*dG*d[5mC]*dA*d[5mC]*dA*d[5mC]*dA*dG*e[5mC]*eT) [compound 399301]
- % Inhib (PTP1B mRNA) (PTP1B mRNA [3]): 43%
- % Inhibition of PTP1B mRNA (PTP1B mRNA [4]; PPS 198, 1.11 nM): 8%
- % Inhibition of PTP1B mRNA (PTP1B mRNA [4]; PPS 198, 3.33 nM): 63%
- % Inhibition of PTP1B mRNA (PTP1B mRNA [4]; PPS 198, 10.0 nM): 91%
- % Inhibition of PTP1B mRNA (PTP1B mRNA [4]; PPS 198, 30.0 nM): 97%
- % Inhib (PTP1B mRNA) (PTP1B mRNA [5]): 55%
- % Inhibition of PTP1B mRNA (PTP1B mRNA [6]; PPS 3000, 1.11 nM): 16%
- % Inhibition of PTP1B mRNA (PTP1B mRNA [6]; PPS 3000, 3.33 nM): 65%
- % Inhibition of PTP1B mRNA (PTP1B mRNA [6]; PPS 3000, 10.0 nM): 93%
- % Inhibition of PTP1B mRNA (PTP1B mRNA [6]; PPS 3000, 30.0 nM): 99%

Substance: ISIS 388625: SGLT2; TGTTCCAGCCCA 2-8-2 MOE Gapmer (antisense eT*eG*dT*dT*d[5mC]*d[5mC]*dA*dG*d[5mC]*d[5mC]*e[5mC]*eA)
- reduction of SGLT2 mRNA / inhibition of the expression of SGLT2 (dog SGLT2 mRNA; 1 mg/kg/wk dose): greater than 80%
- % change in SGLT2 expression relative to saline (dog SGLT2 mRNA; 1 mg/kg/wk): −85%
- % change in SGLT2 expression relative to saline (dog SGLT2 mRNA; 10 mg/kg/wk): −95%
- SGLT2 mRNA, percent change relative to saline treated animals (mouse SGLT2 mRNA [7]; 5 nmol/kg i.p. twice per week for three weeks): −18 percent change
- SGLT2 mRNA, percent change relative to saline treated animals (mouse SGLT2 mRNA [7]; 25 nmol/kg i.p. twice per week for three weeks): −47 percent change
- SGLT2 mRNA, percent change relative to saline treated animals (mouse SGLT2 mRNA [7]; 125 nmol/kg i.p. twice per week for three weeks): −70 percent change
- Plasma glucose levels [8]: significantly reduced
- % change in SGLT2 expression relative to saline (mouse SGLT2 mRNA [9]; 0.02 umol/kg i.p. twice per week for three weeks): −65%
- % change in SGLT2 expression relative to saline (mouse SGLT2 mRNA [9]; [14]): −88%
- % change in SGLT2 expression relative to saline (mouse SGLT2 mRNA [9]; 0.5 umol/kg i.p. twice per week for three weeks): −90%
- % change in SGLT2 expression relative to saline (rat SGLT2 mRNA; dose 3.125 umol/kg (head)): +25%
- % change in SGLT2 expression relative to saline (rat SGLT2 mRNA; dose 12.5 umol/kg (head)): −15%
- % change in SGLT2 expression relative to saline (rat SGLT2 mRNA; dose 50 umol/kg (head)): −65%
- % change in SGLT2 expression relative to saline (rat SGLT2 mRNA; dose 200 umol/kg (head)): −80%
- Urinary glucose excretion [10]: increased
- glucose tolerance [10]: improved glucose tolerance
- Peak plasma glucose levels decreased, on average ([10]; standard glucose tolerance test, compared to saline controls): over 50%
- HbA1C [11]: significantly reduced

Substance: ISIS 391872: ApoB; GGTACATGGAAGTC 1-1-10-2 2′-(butylacetomido)-palmitamide Methyleneoxy BNA/Methyleneoxy BNA Unmodified cytosines in gap (antisense [PALM-G]*lG*dT*dA*dC*dA*dT*dG*dG*dA*dA*dG*lT*l[5mC])
- estimated ED50 (ApoB mRNA [12]): 1.9 mg/kg
- LDL-C ([13]; Example 30): fell below the limit of detection
- Triglycerides ([13]; at the 2.5 and 1.0 mg/kg doses (so in the source)): reduced
- total cholesterol, HDL-C and LDL-C ([13]; dose-dependent manner): markedly reduced
